Measured values reported in patent US20060262149A1, “Ink jet ink and recording material” (priority 2005, published 2006).

Columns and labels:
[1] = Light fastness of cyan, magenta and yellow ink jet prints on stabilizer-treated Konica QP paper, 50% print density (Example 6); settings: HP DeskJet 970 Cxi, stabilizer 650-700 mg/m^2, office fluorescent lighting; for DE for magenta after 4 weeks: None = 20.16; for DE for yellow after 4 weeks: None = 4.68
Experimental: (§1) Color densities and CIEL*a*b coordinates before and after exposure are measured using X-Rite 938 Spectrodensitometer. Exposures are carried out using normal office fluorescent lighting. The change in color is given by Delta E (DE) which is calculated by: DE=[(DL*)^2+(Da*)^2+(Db*)^2]^1/2
A resin-coated paper impregnated with inorganic adsorbent particles (Konica QP Photoglossy ink jet paper, Konica Corp.) is purchased. On the ink-receiving layer, a 0.8 wt % methanol solution of the instant compounds is applied in an amount to achieve 650-700 mg/m^2. The paper is allowed to dry under ambient temperature and pressure for 24 hours. Separately, test patterns (cyan, magenta and yellow) are printed on the treated sheets using a Hewlett Packard DeskJet 970 Cxi printer at 50% print density. The obtained prints are left to dry at ambient temperature and pressure for 24 hours.
Color densities and CIEL*a*b coordinates before and after exposure are measured using X-Rite 938 Spectrodensitometer. Exposures are carried out using normal office fluorescent lighting.

[2] = Light fastness of magenta ink jet prints on stabilizer-treated Konica QP paper, 100% print density (Example 5); settings: HP DeskJet 970 Cxi, stabilizer 650-700 mg/m^2 on Konica QP paper, office fluorescent lighting, None = 25.73
Experimental: A resin-coated paper impregnated with inorganic adsorbent particles (Konica QP Photoglossy ink jet paper, Konica Corp.) is purchased. On the ink-receiving layer, a 0.8 wt % methanol solution of the instant compounds is applied in an amount to achieve 650-700 mg/m^2. The paper is allowed to dry under ambient temperature and pressure for 24 hours.
Separately, test patterns (magenta) are printed on the treated sheets using a Hewlett Packard DeskJet 970 Cxi printer at 100% print density. The obtained prints are left to dry at ambient temperature and pressure for 24 hours.
as §1

| Compound | DE for magenta after 4 weeks [1] | DE for yellow after 4 weeks [1] | DE for magenta after 4 weeks [2] | DE for cyan after 4 weeks ([1]; cyan, None = 7.29) |
| --- | --- | --- | --- | --- |
| CC(C)(O)CON1C(C)(C)CC(O)CC1(C)C [Instant Example 1] | 17.82 | 1.81 | 18.39 |  |
| CC(C)(O)CON1C(C)(C)CC(O)CC1(C)C [Instant Example 2] | 16.71 | 2.48 | 20.89 | 6.64 |
